One data set can be described thus: in vitro. The note with it: human, uninfected MT-4 cells, CC50 (nM), same protocol as Test A, CellTiter-Glo. An outline of the steps: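 Cytoprotection read-out: CellTiter-Glo chemiluminescence after 5 days at 37 °C of HIV-IIIb-infected MT-4 cells (m.o.i. 0.003) with compound in 10-point 3-fold dilutions, quadruplicate, 10% FBS. Cytotoxicity (CC50) measured identically without virus.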
For orientation: In ATP-based viability assays light output follows the ATP content of the culture.

The subject of another data set is HIV-IIIb. The experiment in a line: Test A: Antiviral assay in MT4 cells. The conditions noted are these: Human immunodeficiency virus 1, IIIB, MT4, 120 h, read-out: % inhibition at 2 μM, percent inhibition of virus-induced cell killing, from dose response curve at 2 uM drug; MT-4 cells infected with HIV-IIIb, 5 days, CellTiter-Glo. Format: cell-based, HIV-1.

From US9540343B2 (Gilead Sciences, Inc., priority 2011, dated 2017) come the findings set out here.

As usually defined, the CC50 is the concentration giving 50% cytotoxicity. Lower therefore signals greater toxicity to the cells. The term inhibition denotes the change of the read-out against control, counted positive when it falls.

In the data set “in vitro”, `NC(=O)c1cc(-c2cccnc2[C@H](Cc2cc(F)cc(F)c2)NC(=O)Cn2nc(C(=O)O)c3c2C2CCC3C2)ccc1F` (stereo partly drawn) [Example 409, (S)-5-(2-(2-(3,5-difluorophenyl)-1-(2-(4,5,6,7-tetrahydro-3-carboxy-4,7-(methano)indazol-1-yl)acetamido)ethyl)pyridin-3-yl)-2-fluorobenzamide] registered a CC50 at 5 days greater than 53200 nM. Moreover, in the data set on HIV-IIIb, the inhibition at 2 µM turned out to be 0%.
The compound `O=C(Cn1nc(C(F)F)c2c1C(F)(F)C1CC21)N[C@@H](Cc1cc(F)cc(F)c1)c1ncccc1-c1cccc2cnccc12` (stereo partly drawn) [Example 410, (S)—N-(1-(3-(quinole-5-yl)-pyridin-2-yl)-2-(3,5-difluorophenyl)ethyl)-2-(3-(difluoromethyl)-5,6-dihydro-4,5-(methano)-6,6-difluoro-cyclopenta[c]pyrazol-1(4H)-yl)acetamide] gave a 50% cytotoxic concentration (CC50) at 5 days in the data set “in vitro” of 13700 nM. For the same compound, the inhibition at 2 µM in the data set on HIV-IIIb was found to be 103%.
In the case of `O=C(Cn1nc(C(F)F)c2c1C(F)(F)C1CC21)N[C@@H](Cc1cc(F)cc(F)c1)c1ncccc1-c1ccc2ncccc2c1` (stereo partly drawn) [Example 411, (S)—N-(1-(3-(quinoline-6-yl)-pyridin-2-yl)-2-(3,5-difluorophenyl)ethyl)-2-(3-(difluoromethyl)-5,6-dihydro-4,5-(methano)-6,6-difluoro-cyclopenta[c]pyrazol-1(4H)-yl)acetamide], in “in vitro”, the midpoint of cytotoxicity, the CC50 at 5 days, lay at 8980 nM. Besides, the inhibition at 2 µM in the data set with HIV-IIIb was 53%.
On the same counts, the results for `NC(=O)c1cc(-c2cccnc2[C@H](Cc2cc(F)cc(F)c2)NC(=O)Cc2c[nH]c3ccc(F)cc23)ccc1Cl` [Example 412, (S)-2-chloro-5-(2-(2-(3,5-difluorophenyl)-1-(2-(5-fluoro-1H-indol-3-yl)acetamido)ethyl)pyridin-3-yl)benzamide] are 11100 nM and 80%.
Consider `CS(=O)(=O)c1ccc(-c2cccnc2[C@H](Cc2cc(F)cc(F)c2)NC(=O)Cc2c[nH]c3ccc(F)cc23)cc1` [Example 413, (S)—N-(2-(3,5-difluorophenyl)-1-(3-(4-(methylsulfonyl)phenyl)pyridin-2-yl)ethyl)-2-(5-fluoro-1H-indol-3-yl)acetamide], for which half-maximal cytotoxicity in the data set “in vitro” (CC50 at 5 days) was put at 14500 nM. The inhibition at 2 µM with HIV-IIIb turned out to be 61%.
In “in vitro”, `NC(=O)c1cc(-c2cccnc2[C@H](Cc2cc(F)cc(F)c2)NC(=O)Cn2nc(C(F)(F)F)c3c2C(=O)CCC3(F)F)ccc1F` [Example 414] displayed a 50% cytotoxic concentration (CC50) at 5 days of 23400 nM. Moreover, the inhibition at 2 µM in the data set with HIV-IIIb stood at 39%.
On the same counts, the results for `O=C(Cn1nc(C(F)F)c2c1C(F)(F)C1CC21)N[C@@H](Cc1cc(F)cc(F)c1)c1ncccc1-c1ccc2nccnc2c1` (stereo partly drawn) [Example 415, (S)—N-(1-(3-(quinoxalin-6-yl)-pyridin-2-yl)-2-(3,5-difluorophenyl)ethyl)-2-(3-(difluoromethyl)-5,6-dihydro-4,5-(methano)-6,6-difluoro-cyclopenta[c]pyrazol-1(4H)-yl)acetamide] are 38000 nM and 39%.
On the same counts, the results for `O=C(Cc1c[nH]c2ccc(F)cc12)N[C@@H](Cc1cc(F)cc(F)c1)c1ncccc1-c1ccc(-c2ccccc2)cc1` [Example 416, (S)—N-(1-(3-(biphenyl-4-yl)pyridin-2-yl)-2-(3,5-difluorophenyl)ethyl)-2-(5-fluoro-1H-indol-3-yl)acetamide] are 10300 nM and 0%.
On the same counts, the results for `CC(C)(C)NC(=O)c1cc(-c2cccnc2[C@H](Cc2cc(F)cc(F)c2)NC(=O)Cc2c[nH]c3ccc(F)cc23)ccc1F` [Example 417, (S)—N-tert-butyl-5-(2-(2-(3,5-difluorophenyl)-1-(2-(5-fluoro-1H-indol-3-yl)acetamido)ethyl)pyridin-3-yl)-2-fluorobenzamide] are 12800 nM and 8%.
In the data set “in vitro”, `NC(=O)c1cccc(-c2cccnc2[C@H](Cc2cc(F)cc(F)c2)NC(=O)Cn2cnc3ccccc32)c1` [Example 418, (S)-3-(2-(1-(2-(1H-benzo[d]imidazol-1-yl)acetamido)-2-(3,5-difluorophenyl)ethyl)pyridin-3-yl)benzamide] came in with a CC50 at 5 days greater than 53200 nM. Also, the inhibition at 2 µM in the data set with HIV-IIIb came out at 19%.
As for `Cc1cc(-c2cccnc2[C@H](Cc2cc(F)cc(F)c2)NC(=O)Cc2c[nH]c3ccc(F)cc23)cnc1F` [Example 419], the CC50 at 5 days in the data set “in vitro” was found to be 27100 nM. Besides, the inhibition at 2 µM in the data set with HIV-IIIb stood at 42%.
On the same counts, the results for `O=C(Cn1nc(C(F)F)c2c1C(F)(F)C1CC21)N[C@@H](Cc1cc(F)cc(F)c1)c1ncccc1-c1cccc2ncccc12` (stereo partly drawn) [Example 420, (S)—N-(1-(3-(isoquinole-5-yl)-pyridin-2-yl)-2-(3,5-difluorophenyl)ethyl)-2-(3-(difluoromethyl)-5,6-dihydro-4,5-(methano)-6,6-difluoro-cyclopenta[c]pyrazol-1(4H)-yl)acetamide] are 18700 nM and 110%.
On the same counts, the results for `O=C(Cn1nc(C(F)F)c2c1C(F)(F)C1CC21)N[C@@H](Cc1cc(F)cc(F)c1)c1ncccc1-c1ccc2[nH]ncc2c1` (stereo partly drawn) [Example 421, (S)—N-(1-(3-(indozol-5-yl)-pyridin-2-yl)-2-(3,5-difluorophenyl)ethyl)-2-(3-(difluoromethyl)-5,6-dihydro-4,5-(methano)-6,6-difluoro-cyclopenta[c]pyrazol-1(4H)-yl)acetamide] are 10200 nM and 70%.
On the same counts, the results for `O=C(Cc1c[nH]c2ccc(F)cc12)N[C@@H](Cc1cc(F)cc(F)c1)c1ncccc1-c1cc(Cl)cc(Cl)c1` [Example 422] are 6760 nM and 0%.
As for `O=C(Cn1nc(C(F)(F)F)c2c1CCCC2)N[C@@H](Cc1cc(F)cc(F)c1)c1ncccc1-c1cccc(C(=O)N2CCOCC2)c1` [Example 424, (S)—N-(2-(3,5-difluorophenyl)-1-(3-(3-(morpholine-4-carbonyl)phenyl)pyridin-2-yl)ethyl)-2-(3-(trifluoromethyl)-4,5,6,7-tetrahydro-1H-indazol-1-yl)acetamide], in “in vitro”, the CC50 at 5 days amounted to 14200 nM. Further, the inhibition at 2 µM with HIV-IIIb was found to be 78%.
On the same counts, the results for `CS(=O)(=O)c1ccc(-c2cccnc2[C@H](Cc2cc(F)cc(F)c2)NC(=O)Cn2nc(C(F)(F)F)c3c2CCCC3)cc1` [Example 425, (S)—N-(2-(3,5-difluorophenyl)-1-(3-(4-(methylsulfonyl)phenyl)pyridin-2-yl)ethyl)-2-(3-(trifluoromethyl)-4,5,6,7-tetrahydro-1H-indazol-1-yl)acetamide] are 15600 nM and 85%.
For the compound `NS(=O)(=O)c1cccc(-c2cccnc2[C@H](Cc2cc(F)cc(F)c2)NC(=O)Cc2c[nH]c3ccc(F)cc23)c1` [Example 428, (S)—N-(2-(3,5-difluorophenyl)-1-(3-(3-sulfamoylphenyl)pyridin-2-yl)ethyl)-2-(5-fluoro-1H-indol-3-yl)acetamide], half-maximal cytotoxicity in “in vitro” (CC50 at 5 days) was put at 23000 nM. Moreover, in the data set on HIV-IIIb, the inhibition at 2 µM worked out at 94%.
On to `O=C(Cc1c[nH]c2ccc(F)cc12)N[C@@H](Cc1cc(F)cc(F)c1)c1ncccc1-c1cnc2[nH]ccc2c1` [Example 430, (S)—N-(1-(3-(1H-pyrrolo[2,3-b]pyridin-5-yl)pyridin-2-yl)-2-(3,5-difluorophenyl)ethyl)-2-(5-fluoro-1H-indol-3-yl)acetamide], for which it took 26300 nM to reach half-maximal cytotoxicity in the data set “in vitro” (CC50 at 5 days). For the same compound, the inhibition at 2 µM with HIV-IIIb turned out to be 31%.
`O=C(Cc1c[nH]c2ccc(F)cc12)N[C@@H](Cc1cc(F)cc(F)c1)c1ncccc1-c1ccc(OC(F)(F)F)cc1` [Example 431, (S)—N-(2-(3,5-difluorophenyl)-1-(3-(4-(trifluoromethoxy)phenyl)pyridin-2-yl)ethyl)-2-(5-fluoro-1H-indol-3-yl)acetamide] had a CC50 at 5 days in “in vitro” of 6390 nM. Also, the inhibition at 2 µM with HIV-IIIb is 7%.
On the same counts, the results for `O=C(Cn1nc(C(F)(F)F)c2c1CCCC2)N[C@@H](Cc1cc(F)cc(F)c1)c1ncccc1-c1ccc(N2CCCC2)nc1` [Example 432, (S)—N-(2-(3,5-difluorophenyl)-1-(6′-(pyrrolidin-1-yl)-3,3′-bipyridin-2-yl)ethyl)-2-(3-(trifluoromethyl)-4,5,6,7-tetrahydro-1H-indazol-1-yl)acetamide] are 7990 nM and 90%.
In “in vitro”, `CS(=O)(=O)Nc1ccc(-c2cccnc2[C@H](Cc2cc(F)cc(F)c2)NC(=O)Cn2nc(C(F)F)c3c2C(F)(F)C2CC32)cc1` (stereo partly drawn) [Example 433, (S)—N-(1-(3-(4-(methylsulfonamido)phenyl)-pyridin-2-yl)-2-(3,5-difluorophenyl)ethyl)-2-(3-(difluoromethyl)-5,6-dihydro-4,5-(methano)-6,6-difluoro-cyclopenta[c]pyrazol-1(4H)-yl)acetamide] registered a CC50 at 5 days of 20800 nM. The inhibition at 2 µM with HIV-IIIb is 16%.
In the data set “in vitro”, `O=C(Cc1c[nH]c2ccc(F)cc12)N[C@@H](Cc1cc(F)cc(F)c1)c1ncccc1-c1ccc(Cl)c(F)c1` [Example 434] had a half-maximal cytotoxic concentration (CC50) at 5 days of 12300 nM. The inhibition at 2 µM with HIV-IIIb came out at 20%.
For `COc1ccc2cc(-c3cccnc3[C@H](Cc3cc(F)cc(F)c3)NC(=O)Cc3c[nH]c4ccc(F)cc34)ccc2c1` [Example 435, (S)—N-(2-(3,5-difluorophenyl)-1-(3-(6-methoxynaphthalen-2-yl)pyridin-2-yl)ethyl)-2-(5-fluoro-1H-indol-3-yl)acetamide], the CC50 at 5 days in “in vitro” was determined as 13900 nM. For the same compound, the inhibition at 2 µM with HIV-IIIb was 7%.
On the same counts, the results for `O=C(Cn1nc(C(F)F)c2c1C(F)(F)C1CC21)N[C@@H](Cc1cc(F)cc(F)c1)c1ncccc1-c1ccc2cnccc2c1` (stereo partly drawn) [Example 436] are 11300 nM and 20%.
